This is an account of results in PubChem BioAssay AID1996.

Values after ≈ are worked out from the molar mass of the structure shown.

By solubility (kinetic) is commonly meant solubility judged after dilution from a stock solution rather than from solid.

For the series the following is noted: buffer; pH 7.4; 200.0 µM.
The compound `Cn1c(N)c(C(=O)COC(=O)COc2cc(Cl)c(Cl)cc2Cl)c(=O)n(C)c1=O` showed a kinetic solubility of 4 µg/mL (≈ 8.88 µM).
Compound `C#CCOC(=O)C[N+](C)(C)CC#Cc1ccccc1.[Cl-]` had a solubility (kinetic) of 43.1 µg/mL.
In the case of `CCOC(=O)CN1C(=O)CC(c2ccc([N+](=O)[O-])cc2)C1=O` (configuration not stated) it was over 45.9 µg/mL; in that of `Clc1ccc(CN2CCSCC2)c(Cl)c1`, 0.9 µg/mL (≈ 3.43 µM).
In the case of `CCC(C(=O)OC)n1cnc2scc(-c3ccc(C)cc3)c2c1=O` (configuration not stated) it was 29.3 µg/mL (≈ 85.6 µM); in that of `COC(=O)c1ccc(NC(=O)CSc2nc3ncccc3[nH]2)cc1`, 3.5 µg/mL (≈ 10.2 µM).
With `CCCCCCC1CCC(C(=O)N2CCOCC2)CC1` (configuration not stated) the figure was 10 µg/mL (≈ 35.5 µM).
`N#Cc1ccc(S(=O)(=O)NC2CC2)cc1` came in with a kinetic solubility of over 33.3 µg/mL.
Consider `CSc1ccccc1C(=O)NCc1ccccc1C`, for which the solubility (kinetic) is over 40.7 µg/mL.
In the case of `CC(C)CN(C(=O)C1CCCC1)C1CCS(=O)(=O)C1` (configuration not stated), the solubility (kinetic) is over 43.1 µg/mL.
With `Cc1cccc(CNC(=O)C2CCC(=O)N(C3CC3)C2)c1` (configuration not stated) the figure was over 43 µg/mL; with `N#Cc1ccc(C(=O)NC23CC4CC(CC(C4)C2)C3)cc1`, 0.8 µg/mL (≈ 2.85 µM); with `O=C(Nc1cccc(S(=O)(=O)N2CCCCC2)c1)c1cc(=O)[nH]c2ccccc12`, 9.2 µg/mL (≈ 22.4 µM).
With `CN1CCN(C(=O)/C(=C/c2ccco2)NC(=O)c2ccccc2)CC1` the figure was 40.7 µg/mL (≈ 120 µM).
With `O=C(O)C1CCC1C(=O)Nc1nc(-c2ccc(Cl)s2)cs1` (configuration not stated) the figure was over 51.4 µg/mL; with `CCCC(=O)c1c[nH]c(C(=O)NCc2cccnc2)c1`, 18.1 µg/mL (≈ 66.7 µM); with `O=C(Nc1cccnc1)c1ccc(CSc2ccccc2)cc1`, under 0.3 µg/mL.
As to `O=S(=O)(c1cccc2cccnc12)N1CCCCC1`, the solubility (kinetic) was over 41.5 µg/mL.
For the compound `COc1ccc(OCCC(=O)OCC(=O)NCCC2=CCCCC2)cc1`, the kinetic solubility is over 54.2 µg/mL.
With `O=S(=O)(c1cc(F)ccc1F)N1CCN(c2ncccn2)CC1` the figure was 46.9 µg/mL (≈ 138 µM).
With `CCN(Cc1ccccc1)Cc1nc(CCc2ccccc2)no1` the figure was 1.4 µg/mL (≈ 4.36 µM); with `COc1ccc(CNC(=O)CCC(=O)Nc2ccc(Cl)cc2)cc1`, 1.3 µg/mL (≈ 3.75 µM); with `Cc1ccc(C(=O)Nc2nccs2)cc1`, 16.5 µg/mL (≈ 75.6 µM).
With `O=S(=O)(Nc1ccccn1)c1cc(Cl)ccc1Cl` the figure was 9.2 µg/mL (≈ 30.3 µM).
Compound `CCC(C(=O)Nc1c(C)cc(C)cc1C)N1CCCCCC1` (configuration not stated) displayed a solubility (kinetic) of 41 µg/mL (≈ 136 µM).
With `Oc1ccc2ccccc2c1C=Nc1ccccc1Br` the figure was under 0.7 µg/mL.
With `CN(C)CCn1c(=S)[nH]c2ccc(Cl)cc2c1=O`, the solubility (kinetic) is over 42.6 µg/mL.
With `COc1cccc(C(=O)Nc2ccccc2-c2ccccc2)c1` the figure was 24 µg/mL (≈ 79.1 µM); with `CCN(Cc1ccccc1)C1CCN(Cc2ccccc2)CC1`, 34.2 µg/mL (≈ 111 µM); with `O=C1CC(C(=O)N2CCCc3ccccc32)CN1c1ccc(F)cc1` (configuration not stated), 46.5 µg/mL (≈ 137 µM).
With `c1ccc(C2CCC(N3CCN(c4ccccc4)CC3)CC2)cc1` (configuration not stated), the solubility (kinetic) was 1.3 µg/mL (≈ 4.06 µM).
In the case of `CN(C)/C=C(\c1cnc(Cl)s1)S(=O)(=O)c1ccccc1` it was 43.8 µg/mL (≈ 133 µM); in that of `CN(C1CCS(=O)(=O)C1)S(=O)(=O)c1ccc2ccccc2c1` (configuration not stated), 9.2 µg/mL (≈ 27.1 µM).
In the case of `CN1CCN(CCn2c(=S)[nH]c3ccccc3c2=O)CC1` it was over 45.7 µg/mL; in that of `CCn1c(=O)c(C(=O)Nc2ccccc2)c(O)c2ccccc21`, under 0.3 µg/mL; in that of `CN(Cc1ccccc1)C(=O)c1ccco1`, 30.3 µg/mL (≈ 141 µM).
With `COc1ccc(NC(=S)Nc2cnc3ccccc3c2)c(OC)c1` the figure was 45.1 µg/mL (≈ 133 µM); with `Cc1ccc(C)c(Nc2c([N+](=O)[O-])c(=O)oc3ccccc23)c1`, 2.4 µg/mL (≈ 7.73 µM).
Compound `O=C(NC(=O)c1ccccc1)Nc1ccccn1` returned a kinetic solubility of 9.5 µg/mL (≈ 39.4 µM). This solubility kinetic is about 4-fold higher than that of the compound before.
In the case of `C#CCN1C(=O)S/C(=C\c2ccc(-c3ccc(C(=O)O)cc3C)o2)C1=O` it was 35 µg/mL (≈ 95.3 µM); in that of `CC1CCN(CC(O)COc2ccc(C(=O)c3ccccc3)cc2)CC1` (configuration not stated), over 53 µg/mL; in that of `COc1ccc(/C=N/NC(=O)c2cccnc2)cc1CN1CCOCC1`, over 53.2 µg/mL.
In the case of `COc1cccc(C2(C#N)CCN(C)CC2)c1` it was over 34.5 µg/mL; in that of `O=C(CN1C(=O)c2ccccc2C1=O)NCc1ccc(F)cc1`, 6.5 µg/mL (≈ 20.8 µM); in that of `Cc1ccc(C(=O)NC(=O)CSc2nncn2C)cc1`, over 43.6 µg/mL.
In the case of `COc1ccc(NC(=O)CS(=O)c2ccc(F)cc2)cc1` (configuration not stated) it was over 46.1 µg/mL.
On to `CCN(Cc1ccncc1)C(=O)c1ccc(C)o1`, for which the solubility (kinetic) is over 36.6 µg/mL.
With `O=S(=O)(Nc1ncnc2sccc12)c1cccc(F)c1` the figure was over 46.4 µg/mL; with `CC(C)CCSc1nc2ccccc2[nH]1`, 10.7 µg/mL (≈ 48.6 µM); with `O=C(c1cc(-c2ccc(O)cc2)on1)N1CCOCC1`, over 41.1 µg/mL.
With `COc1cccc(CNC(=S)Nc2cccc(Cl)c2C)c1` the figure was 29.9 µg/mL (≈ 93.2 µM).
`Cc1nc(N=C(N)N)nc2c(C)cccc12` registered a solubility (kinetic) of 29.8 µg/mL (≈ 138 µM). The solubility kinetic values of the last two compounds are within 1.5-fold of each other.
